pIC50: −log10 of the molar value.

Experimental findings from patent US20240051985A1, “METTL3 MODULATORS” (ACCENT THERAPEUTICS, INC., priority 2020, published 2024) are described below.

In one test the target is METTL3/METTL14 (Homo sapiens, UniProt Q86U44). Put plainly: METTL3-14 standard enzyme assay (3H-SAM flashplate). The settings on record: METTL3 biochemical assay. The method in brief:
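METTL3/METTL14 (2.5 nM) preincubated 5 min, then reacted with 3′-biotinylated RNA UCUGGACUAAA (100 nM) and 3H-SAM (100 nM) for 30 min at ambient temperature in 20 mM HEPES pH 7.5, 50 mM KCl, 250 μM MgCl2, 1 mM DTT. Quenched with 15 μM cold SAM; product captured on streptavidin flashplates, scintillation counted.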

In a further test the target is PRMT5-MEP50 (Homo sapiens, UniProt O14744). The experiment in a line: PRMT5 assay (3H-SAM flashplate). The following applies: PRMT5 biochemical assay. The protocol:
Assays were performed in a 25 μl-volume in 384-well V-bottom polypropylene microplates (Greiner Bio-One, cat. No. 781280) at ambient temperature. Optimized 1× assay buffer was 20 mM Tris-HCl pH 8.0, 1 mM DTT, […]. For compound screening PRMT5-MEP50 (final concentration, f.c.=2.5 nM) was added using a Multidrop Combi (ThermoFisher Scientific, Waltham, MA) and preincubated for 5 min. Reactions were started by adding 3′ biotinylated histone H4 peptide acetylated on serine 1 (Ac-[…]-Biotin) (f.c.=100 nM) and 3H-SAM (f.c.=250 nM) substrates. Reactions proceeded for 60 minutes and were quenched with excess non-radioactive SAM (f.c.=15 μM). The reactions were then transferred to streptavidin-coated flashplates and incubated for 2 hours at 25° C. Following two washing cycles with 0.1% Tween-20, the plates were sealed and read on a TopCount (PerkinElmer, Waltham, MA) plate-based scintillation counter. For determination of kinetic parameters, reaction times were optimized so that measurements were taken during the initial velocity phase of the reaction.

PRMT5-MEP50, sequence (O14744 whole entry): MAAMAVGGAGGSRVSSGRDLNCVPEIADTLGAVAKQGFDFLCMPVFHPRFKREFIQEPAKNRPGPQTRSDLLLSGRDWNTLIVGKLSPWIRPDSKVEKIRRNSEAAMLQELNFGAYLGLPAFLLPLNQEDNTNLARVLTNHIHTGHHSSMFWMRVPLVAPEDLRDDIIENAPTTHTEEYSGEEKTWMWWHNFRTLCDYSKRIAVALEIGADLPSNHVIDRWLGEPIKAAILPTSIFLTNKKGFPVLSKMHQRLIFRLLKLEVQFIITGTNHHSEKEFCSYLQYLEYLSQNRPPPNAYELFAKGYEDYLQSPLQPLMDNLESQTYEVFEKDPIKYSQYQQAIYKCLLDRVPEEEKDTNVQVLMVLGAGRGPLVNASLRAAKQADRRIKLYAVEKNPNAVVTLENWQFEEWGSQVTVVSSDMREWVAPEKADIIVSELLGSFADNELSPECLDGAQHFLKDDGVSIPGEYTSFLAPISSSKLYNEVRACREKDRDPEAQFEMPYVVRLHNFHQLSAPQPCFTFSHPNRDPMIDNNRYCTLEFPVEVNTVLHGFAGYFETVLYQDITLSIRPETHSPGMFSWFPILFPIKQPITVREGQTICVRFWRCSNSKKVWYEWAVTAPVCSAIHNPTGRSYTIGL
PRMT5-MEP50, sequence (Q9BQA1 whole entry partner): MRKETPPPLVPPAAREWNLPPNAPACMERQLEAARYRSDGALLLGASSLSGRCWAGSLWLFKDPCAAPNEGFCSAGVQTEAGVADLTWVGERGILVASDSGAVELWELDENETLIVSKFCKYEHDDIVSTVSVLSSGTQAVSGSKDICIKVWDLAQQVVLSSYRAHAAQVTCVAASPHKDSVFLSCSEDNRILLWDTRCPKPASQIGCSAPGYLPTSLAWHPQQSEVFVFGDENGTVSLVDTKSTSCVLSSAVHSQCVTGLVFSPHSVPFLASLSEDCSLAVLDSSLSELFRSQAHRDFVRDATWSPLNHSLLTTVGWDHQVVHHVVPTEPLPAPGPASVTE
METTL3/METTL14, sequence (Q86U44 whole entry, species assumed): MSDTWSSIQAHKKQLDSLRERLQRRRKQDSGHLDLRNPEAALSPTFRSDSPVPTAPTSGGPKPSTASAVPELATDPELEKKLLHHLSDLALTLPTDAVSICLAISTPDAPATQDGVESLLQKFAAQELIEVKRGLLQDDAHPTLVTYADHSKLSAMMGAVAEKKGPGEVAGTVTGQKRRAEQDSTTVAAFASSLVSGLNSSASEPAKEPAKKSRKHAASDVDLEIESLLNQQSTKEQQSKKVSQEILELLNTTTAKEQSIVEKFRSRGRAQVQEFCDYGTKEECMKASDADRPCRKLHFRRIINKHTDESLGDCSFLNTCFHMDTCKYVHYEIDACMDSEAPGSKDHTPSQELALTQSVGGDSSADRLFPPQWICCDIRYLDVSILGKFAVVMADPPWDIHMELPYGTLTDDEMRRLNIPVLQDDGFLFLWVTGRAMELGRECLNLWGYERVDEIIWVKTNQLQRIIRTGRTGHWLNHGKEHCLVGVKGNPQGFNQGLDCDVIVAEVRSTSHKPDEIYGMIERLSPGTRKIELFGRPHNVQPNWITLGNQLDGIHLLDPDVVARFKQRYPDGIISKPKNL
METTL3/METTL14, sequence (Q9HCE5 whole entry partner, species assumed): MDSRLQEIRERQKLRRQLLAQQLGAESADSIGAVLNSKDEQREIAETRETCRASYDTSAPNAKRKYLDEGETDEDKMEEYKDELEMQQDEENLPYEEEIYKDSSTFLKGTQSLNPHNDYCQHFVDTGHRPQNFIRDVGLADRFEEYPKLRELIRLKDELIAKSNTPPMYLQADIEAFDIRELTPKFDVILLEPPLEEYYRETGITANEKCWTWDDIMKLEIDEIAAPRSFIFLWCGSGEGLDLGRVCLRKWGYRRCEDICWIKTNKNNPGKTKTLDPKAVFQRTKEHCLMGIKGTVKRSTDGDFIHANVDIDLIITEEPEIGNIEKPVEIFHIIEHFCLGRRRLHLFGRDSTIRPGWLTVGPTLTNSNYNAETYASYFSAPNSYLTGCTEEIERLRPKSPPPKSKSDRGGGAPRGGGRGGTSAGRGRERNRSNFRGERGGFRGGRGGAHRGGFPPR

Regarding `Cn1ccc(-c2cn([C@@H]3O[C@H](C(=O)N4CCC[C@H](C(N)=O)C4)[C@@H](O)[C@H]3O)c3ncnc(N)c23)n1` [Compound I-200], the pIC50 against METTL3/METTL14 (Table 4) and against PRMT5-MEP50 (Table 4) was no more than 6.00 throughout.
As for `Cn1ccc(-c2cn([C@@H]3O[C@H](C(=O)NCC4CCNCC4)[C@@H](O)[C@H]3O)c3ncnc(N)c23)n1` [Compound I-2], the pIC50 (commonly −log10 of the IC50, conventionally taken in molar units) was 6.00 to 7.00 at METTL3/METTL14 (Table 3) and 7.00 to 8.00 on PRMT5-MEP50 (Table 3).
In the case of `Cn1ccc(-c2cn([C@@H]3O[C@H](C(=O)NC4CCN(Cc5ccccc5)CC4)[C@@H](O)[C@H]3O)c3ncnc(N)c23)n1` [Compound I-201], the pIC50 on METTL3/METTL14 (Table 4) and on PRMT5-MEP50 (Table 4) was 7.00 to 8.00 each time.
Take `Cn1ccc(-c2cn([C@@H]3O[C@H](C(=O)NC4CCn5ccnc5C4)[C@@H](O)[C@H]3O)c3ncnc(N)c23)n1` (some centres unmarked) [Compound I-207]: the negative-log IC50 (pIC50) at METTL3/METTL14 (Table 4) and on PRMT5-MEP50 (Table 4) was 6.00 to 7.00 throughout.
Regarding `Cn1ccc(-c2cn([C@@H]3O[C@H](C(=O)NCc4cnccn4)[C@@H](O)[C@H]3O)c3ncnc(N)c23)n1` [Compound I-20], the pIC50 was 6.00 to 7.00 on METTL3/METTL14 (Table 3) and no more than 6.00 against PRMT5-MEP50 (Table 3).
As for `Cn1ccc(-c2cn([C@@H]3O[C@H](C(=O)NC4CCS(=O)(=O)C4)[C@@H](O)[C@H]3O)c3ncnc(N)c23)n1` (some centres unmarked) [Compound I-213], the pIC50 at METTL3/METTL14 (Table 4) and on PRMT5-MEP50 (Table 4) was no more than 6.00 throughout.
In the case of `CN1CCC(N(CCCNc2ccccn2)C(=O)[C@H]2O[C@@H](n3cc(-c4ccn(C)n4)c4c(N)ncnc43)[C@H](O)[C@@H]2O)CC1` [Compound I-153], the pIC50 was no more than 6.00 at METTL3/METTL14 (Table 4) and 7.00 to 8.00 against PRMT5-MEP50 (Table 4).
On to `Cn1ccc(-c2cn([C@@H]3O[C@H](C(=O)NCC4CCN(CC(F)F)CC4)[C@@H](O)[C@H]3O)c3ncnc(N)c23)n1` [Compound I-23], for which the results for the pIC50 against METTL3/METTL14 (Table 3) and against PRMT5-MEP50 (Table 3) were no more than 6.00 and 6.00 to 7.00, respectively.
As to `Cn1ccc(-c2cn([C@@H]3O[C@H](C(=O)NC4CCN(CCN)CC4)[C@@H](O)[C@H]3O)c3ncnc(N)c23)n1` [Compound I-41, (2S,3S,4R,5R)-5-[4-amino-5-(1-methyl-1H-pyrazol-3-yl)-7H-pyrrolo[2,3-d]pyrimidin-7-yl]-N-[1-(2-aminoethyl)piperidin-4-yl]-3,4-dihydroxyoxolane-2-carboxamide], the pIC50 on METTL3/METTL14 (Table 4) and at PRMT5-MEP50 (Table 4) was no more than 6.00 throughout.
For the molecule `Cn1ccc(-c2cn([C@@H]3O[C@H](C(=O)N(CC[C@H](N)C(=O)O)C4CCNCC4)[C@@H](O)[C@H]3O)c3ncnc(N)c23)n1` [Compound I-9], the figures for the pIC50 against METTL3/METTL14 (Table 3) and on PRMT5-MEP50 (Table 3) were 6.00 to 7.00 and no more than 6.00, respectively.
The matching figures for `Nc1ncnc2c1ccn2[C@@H]1O[C@H](C(=O)NCC2CCN(CC(F)F)CC2)[C@@H](O)[C@H]1O` [Compound I-28]: no more than 6.00 and no more than 6.00.
On to `Cn1ccc(-c2cn([C@@H]3O[C@H](C(=O)N(CC[C@H](N)C(=O)O)c4ccc5nc(N)[nH]c5c4)[C@@H](O)[C@H]3O)c3ncnc(N)c23)n1` [Compound I-39, (2S)-2-amino-4-[N-(2-amino-1H-1,3-benzodiazol-6-yl)-1-[(2S,3S,4R,5R)-5-[4-amino-5-(1-methyl-1H-pyrazol-3-yl)-7H-pyrrolo[2,3-d]pyrimidin-7-yl]-3,4-dihydroxyoxolan-2-yl]formamido]butanoic acid], for which the pIC50 was 6.00 to 7.00 on METTL3/METTL14 (Table 4) and no more than 6.00 against PRMT5-MEP50 (Table 4).
`CN1CCC(NC(=O)[C@H]2O[C@@H](n3cc(-c4ccn(C)n4)c4c(N)ncnc43)[C@H](O)[C@@H]2O)CC1` [Compound I-25]: the pIC50 was 6.00 to 7.00 on METTL3/METTL14 (Table 3) and 7.00 to 8.00 at PRMT5-MEP50 (Table 3).
On to `Cn1ccc(-c2cn([C@@H]3O[C@H](C(=O)N4CCc5[nH]cnc5C4)[C@@H](O)[C@H]3O)c3ncnc(N)c23)n1` [Compound I-217], for which the pIC50 is 6.00 to 7.00 at METTL3/METTL14 (Table 4) and 7.00 to 8.00 against PRMT5-MEP50 (Table 4).
As to `Cn1ccc(-c2cn([C@@H]3O[C@H](C(=O)NC4CCC4)[C@@H](O)[C@H]3O)c3ncnc(N)c23)n1` [Compound I-218], the figures for the pIC50 at METTL3/METTL14 (Table 4) and against PRMT5-MEP50 (Table 4) were 6.00 to 7.00 and no more than 6.00, respectively.
For the molecule `CN1CCC(N(CCCc2nn[nH]n2)C(=O)[C@H]2O[C@@H](n3cc(-c4ccn(C)n4)c4c(N)ncnc43)[C@H](O)[C@@H]2O)CC1` [Compound I-48], the pIC50 was no more than 6.00 against METTL3/METTL14 (Table 4) and 7.00 to 8.00 against PRMT5-MEP50 (Table 4).
Regarding `CN1CCC(CNC(=O)[C@H]2O[C@@H](n3cc(-c4ccn(C)n4)c4c(N)ncnc43)[C@H](O)[C@@H]2O)CC1` [Compound I-24], the pIC50 against METTL3/METTL14 (Table 3) was 6.00 to 7.00; against PRMT5-MEP50 (Table 3) it was 7.00 to 8.00.
With `CC(=O)NCCCN(C(=O)[C@H]1O[C@@H](n2cc(-c3ccn(C)n3)c3c(N)ncnc32)[C@H](O)[C@@H]1O)C1CCN(C)CC1` [Compound I-235], the pIC50 at METTL3/METTL14 (Table 4) was no more than 6.00; against PRMT5-MEP50 (Table 4) it was 6.00 to 7.00.
Regarding `COCCN(C(=O)[C@H]1O[C@@H](n2cc(-c3ccn(C)n3)c3c(N)ncnc32)[C@H](O)[C@@H]1O)c1ccc2ccc(N3CCC3)nc2c1` [Compound I-11], the pIC50 at METTL3/METTL14 (Table 3) and at PRMT5-MEP50 (Table 3) was 6.00 to 7.00 in each case.
In the case of `COCCN(C(=O)[C@H]1O[C@@H](n2cc(-c3ccn(C)n3)c3c(N)ncnc32)[C@H](O)[C@@H]1O)C1CCNCC1` [Compound I-6], the figures for the pIC50 on METTL3/METTL14 (Table 3) and against PRMT5-MEP50 (Table 3) were no more than 6.00 and greater than 8.00, respectively.
In the case of `C#CCCCN(C(=O)[C@H]1O[C@@H](n2cc(-c3ccn(C)n3)c3c(N)ncnc32)[C@H](O)[C@@H]1O)C1CCN(C)CC1` [Compound I-59, (2S,3S,4R,5R)-5-(4-amino-5-(1-methyl-1H-pyrazol-3-yl)-7H-pyrrolo[2,3-d]pyrimidin-7-yl)-3,4-dihydroxy-N-(1-methylpiperidin-4-yl)-N-(pent-4-yn-1-yl)tetrahydrofuran-2-carboxamide], the pIC50 was 6.00 to 7.00 on METTL3/METTL14 (Table 4) and greater than 8.00 at PRMT5-MEP50 (Table 4).
In the case of `Cn1ccc(-c2cn([C@@H]3O[C@H](C(=O)NCc4ccccc4)[C@@H](O)[C@H]3O)c3ncnc(N)c23)n1` [Compound I-26], the pIC50 against METTL3/METTL14 (Table 3) was 6.00 to 7.00; at PRMT5-MEP50 (Table 3), no more than 6.00.
